Entries after “also recorded” stand apart in the source; their conditions may differ.
Tests used:
trypsin = trypsin (Homo sapiens, UniProt P07477); conditions: cited from earlier work
[1] = test system: dogs with suspected chronic pancreatitis; experiment: Adverse drug reactions, complete blood count and serum biochemistry profile, clinical trial; assay type: in vivo, dog
Method: (§1) Treatment effects on overall health status, quality of life, and clinical signs were also evaluated with serum biochemistry profiles, complete blood counts, and owner questionnaires.
(§2) Twelve enrolled dogs received camostat capsules at a dosage of 4 mg/kg q 8 hrs, for a total dose of 12 mg/kg q 24 hrs. […] Individual patients were medicated for between 21 to 31 days.
(§3) Patients were treated at home and their overall health was monitored by their owners and the referring physician.
(§4) Blood samples were collected before beginning the treatment and after completion of the treatment period. Complete blood count (red blood cell count, hematocrit, mean corpuscular volume, mean corpuscular hemoglobin, mean corpuscular hemoglobin concentration, differential and absolute white blood cell count, red blood cell count, hemoglobin, platelet estimate, red blood cell morphology, white blood cell morphology, and hemoparasites) was evaluated at the Texas Veterinary Medical Diagnostic Laboratory (TVMDL). A serum chemistry profile with electrolytes (glucose, blood urea nitrogen, creatinine, calcium, phosphorus, albumin, total protein, total bilirubin, alkaline phosphatase, alanine amino transferase, aspartate amino transferase, γ-glutamyl transferase, cholesterol, triglycerides, globuline, sodium, potassium, and chloride) was performed on a SIRRUS analyzer (Stanbio, Boerne, Tex., USA). Serum concentrations of cPL (RI: 0-200 μg/L; Spec cPL® IDEXX Laboratories, Westbrook, Me., USA), cTLI (RI: 5.7-45.2 μg/L; Canine TLI DOUBLE ANTIBODY®, Siemens Healthcare Diagnostics, Los Angeles, Calif., USA), cobalamin (RI: 251-908 ng/L), and folate (RI: 7.7-24.4 μg/L; Immulite 2000®, Siemens Healthcare Diagnostics Inc., Deerfield, Ill., USA), canine specific C-reactive protein (RI: 0-7.6 mg/L, Tridelta Development Limited, Maynooth, CO. Kildare, Ireland), S100A12 (RI: 56-331 μg/L, Gastrointestinal Laboratory in-house radioimmunoassay), and TGF-β1 (RI: 38-72 ng/mL; Quantikine® ELISA, R&D Systems, Minneapolis, […]., USA) were performed at the Gastrointestinal Lab at Texas A&M University.
(§5) Pre-treatment and post-treatment results for all diagnostic tests were statistically analyzed using Prism 6 (GraphPad Software, La Jolla, Calif., USA). The D'Agostino-Pearson omnibus test was used to evaluate all datasets for Gaussian distribution. Groups were compared using a paired t-test for normally-distributed data sets and a Wilcoxon matched-pairs test when Gaussian distribution could not be assumed. Mean values and standard deviation are reported for data sets with Gaussian distribution. Median and minimum/maximum values are reported for data sets where Gaussian distribution could not be assumed. The significance threshold was set at p=0.05.

[2] = test system: dogs with suspected chronic pancreatitis; experiment: Serum TGF-β1 before and after treatment, clinical trial; assay type: in vivo, dog; conditions: for Change in serum TGF-β1, pre- vs post-treatment (paired t-test): methanesulfonate
Method: as §1
(§6) Dogs were identified by screening current submissions to the Gastrointestinal Laboratory at Texas A&M indicative of pancreatitis (canine pancreas-specific lipase≧400 μg/L) using an immunoassay for measurement of canine pancreas-specific lipase in canine serum known as the spec CPL® Test (IDEXX, Laboratories). A number of potential study participants were directly referred to the investigator by veterinarians, based on positive pet-side SNAP cPL® Test (IDEXX Laboratories, Westbrook, Me., USA) results and concomitant clinical signs. After ascertaining individual suitability of a patient with the referring veterinarian, serum canine pancreas-specific lipase concentration, serum biochemistry profile, and complete blood count were evaluated or re-evaluated 12±4 days after collection of the initial sample submission to the Gastrointestinal Laboratory. Based on the assumption that consecutive canine pancreas-specific lipase elevations indicate chronic pancreatitis, enrollment was offered for patients with canine pancreas-specific lipase concentrations≧400 μg/L, serum triglyceride concentrations below 500 mg/dL, and no indication of hepatic, renal, or other organ disease. […] Owner consent was required prior to phlebotomy and for enrollment into the trial.
as §2, §4, §5

[3] = test system: dogs with suspected chronic pancreatitis; experiment: Serum S100A12 before and after treatment, clinical trial; assay type: in vivo, dog; conditions: 8 mg/kg q 8 hrs, n=17
[4] = test system: dogs with suspected chronic pancreatitis; experiment: Quality of life reported by owners and referring vets, clinical trial; assay type: in vivo, dog
Method: as §1, §3
Owners of enrolled dogs received instructions to refrain from changing the dog's diet during the trial period and to report on the overall health status and quality of life of their pet.

[5] = test system: dogs with suspected chronic pancreatitis; experiment: Serum C-reactive protein before and after treatment, clinical trial; assay type: in vivo, dog; conditions: for Change in serum C-reactive protein, pre- vs post-treatment: methanesulfonate
Method: as §1, §6, §2
Blood samples were collected before beginning the treatment and after completion of the treatment period. Complete blood count (red blood cell count, hematocrit, mean corpuscular volume, mean corpuscular hemoglobin, mean corpuscular hemoglobin concentration, differential and absolute white blood cell count, red blood cell count, hemoglobin, platelet estimate, red blood cell morphology, white blood cell morphology, and hemoparasites) was evaluated at the Texas Veterinary Medical Diagnostic Laboratory (TVMDL). A serum chemistry profile with electrolytes (glucose, blood urea nitrogen, creatinine, calcium, phosphorus, albumin, total protein, total bilirubin, alkaline phosphatase, alanine amino transferase, aspartate amino transferase, γ-glutamyl transferase, cholesterol, triglycerides, globuline, sodium, potassium, and chloride) was performed on a SIRRUS analyzer (Stanbio, Boerne, Tex., USA). […]
Pre-treatment and post-treatment results for all diagnostic tests were statistically analyzed using Prism 6 (GraphPad Software, La Jolla, Calif., USA). […]

Han Wistar rats = experiment: Rising-dose tolerance study, single oral gavage; assay type: in vivo, rat
Method: The following parameters and end points were evaluated in the rising-dose phase of this study: clinical signs, body weights, body weight changes, food consumption, and gross necropsy findings.
A total of 18 male and 24 female Han Wistar rats were received from Charles River Laboratories, Raleigh, N.C. The animals were examined and weighed on the day following receipt. The rising-dose phase animals were 8 weeks old and weighed between 176 g and 255 g at initiation of dosing and the multiple-dose phase animals were 8 weeks old and weighed between 172 g and 259 g at initiation of dosing.
For the rising-dose study, the test article was administered to the appropriate animals as a single dose by oral gavage. At least a 3-day observation period was maintained before proceeding to the next dose level/group. The dose volume for each animal was based on the most recent body weight measurement. The doses were given using a syringe with attached gavage cannula. The first day of dosing for each group was designated as Study Day 1.
The animals were removed from the cage and a detailed clinical observation was performed on the day of randomization and Days 1 to 8; 1 to 3 hours postdose on the day of dosing. Each animal was weighed on the day of randomization and Days 1 to 8. Food consumption was quantitatively measured for each animal weekly, starting Day −3, throughout the study.
Rising-dose study animals were subjected to a complete necropsy examination, which included evaluation of the carcass and musculoskeletal system; all external surfaces and orifices; cranial cavity and external surfaces of the brain; and thoracic, abdominal, and pelvic cavities with their associated organs and tissues. Necropsy examinations were conducted under the supervision of a board-certified veterinary pathologist.

[6] = all treated dogs combined, n=29, trend towards a decrease
[7] = 100, 550 or 1300 mg/kg single dose

## CN(C)C(=O)COC(=O)Cc1ccc(OC(=O)c2ccc(NC(=N)N)cc2)cc1 [Camostat Mesilate, N,N-dimethylcarbamoylmethyl-4-(4-guanidinobenzoyloxy)phenylacetate methanesulfonate]
trypsin
  Anti-trypsin activity: pronounced anti-trypsin
[1]; 4 mg/kg q 8 hrs, 12 dogs, reported in two dogs
  Adverse drug reactions: increased flatulence
[1]; 8 mg/kg q 8 hrs, 17 dogs, each sign in one dog, methanesulfonate
  Adverse drug reactions: pruritus in one front paw; also recorded: increased flatulence
[1]; all treated dogs
  Complete blood count and serum biochemistry parameters, pre- vs post-treatment: no statistically significant differences
[1]; another individual dog
  Increase in serum aspartate amino transferase activity after treatment: 6 fold
[1]; both dosages (12 or 24 mg/kg q d), 26±5 days
  Side effects overall: very mild side effects
[1]; either group (4 or 8 mg/kg q 8 hrs)
  Other clinical signs suggestive of an adverse drug reaction: No other clinical signs suggestive of an adverse drug reaction were observed
[1]; one individual dog
  Increase in serum γ-glutamyl transferase activity after treatment: 35 fold
[1]; one individual dog (same dog as the γ-glutamyl transferase increase)
  Increase in aspartate amino transferase activity after treatment: 6 fold
[2]; 4 mg/kg q 8 hrs, n=12
  Change in serum TGF-β1, pre- vs post-treatment (paired t-test): no significant difference; also recorded: did not change significantly
[2]; 4 mg/kg q 8 hrs, n=12, pre-treatment mean 45, post SD ±8, p=0.3679
  Serum TGF-β1 concentration post-treatment (mean): 43 ng/mL
[2]; 8 mg/kg q 8 hrs, n=17
  Change in serum TGF-β1, pre- vs post-treatment (paired t-test): no significant difference; also recorded: did not change significantly
[2]; 8 mg/kg q 8 hrs, n=17, pre-treatment mean 47, post SD ±12, p=0.1686
  Serum TGF-β1 concentration post-treatment (mean): 40 ng/mL
[2]; all treated dogs combined, n=29, pre-treatment mean 46, post SD ±11, p=0.0986
  Serum TGF-β1 concentration post-treatment (mean): 41 ng/mL
[2]; [6]
  Change in serum TGF-β1, pre- vs post-treatment (paired t-test): no statistically significant difference; also recorded: did not lead to any significant changes
[3]; methanesulfonate
  Change in serum S100A12, pre- vs post-treatment: no significant difference; also recorded: did not change significantly
[3]; pre-treatment median 147, post range 58-746, p=0.8176
  Serum S100A12 concentration post-treatment (median): 148 µg/L
[4]; 24 mg/kg q d orally
  Quality of life, reports from referring vets and pet owners: subjective improvement of quality of life in some patients
[4]; all treated dogs
  Quality of life, overall consensus from pet owners: had improved
[5]; 4 mg/kg q 8 hrs, n=12
  Change in serum C-reactive protein, pre- vs post-treatment: no significant difference; also recorded: did not change significantly
[5]; 4 mg/kg q 8 hrs, n=12, pre-treatment median 0.8, post range 0.0-9.4, p=0.1543
  Serum C-reactive protein concentration post-treatment (median): 0.6 mg/L
[5]; all treated dogs combined, n=29, pre-treatment median 0.2, p=0.0595
  Serum C-reactive protein concentration post-treatment (median): 0.1 mg/L
[5]; [6]
  Change in serum C-reactive protein, pre- vs post-treatment: no statistically significant difference; also recorded: did not lead to any significant changes
Han Wistar rats; 550 mg/kg single dose
  Clinical observation not considered test article related: hair loss was observed in 1 animal
Han Wistar rats; 1300 mg/kg single dose, male
  Necropsy observation not considered test article related: Dark discoloration of the thymus was observed in one 1300 mg/kg male
Han Wistar rats; 1300 mg/kg single dose, possible aspiration during dosing
  Clinical observation not considered a direct test article effect: piloerection and abnormal breathing sounds were observed in 1 animal on Day 2
Han Wistar rats; [7]
  Body weight Days 1 to 8: All animals gained weight
  Food consumption: no significant changes in food consumption
  Gross necropsy findings: no significant gross necropsy findings
  Test article-related clinical observations: no test article-related clinical observations
Han Wistar rats; single oral gavage 100, 550 or 1300 mg/kg, euthanasia Day 8, methanesulfonate
  Survival: All animals survived to scheduled euthanasia; also recorded: No animals died

From patent publication US20170095440A1, “METHOD OF TREATING CANINE PANCREATITIS” (CK9, LLC, priority 2014, published 2017)
